Like-named read-outs stand apart in the source and are kept apart here.
Experiments:
[1] = pediatric cohorts; cited from earlier work
[2] = single-oral-dose pharmacokinetic study, plasma AVA and metabolite concentrations in pediatric hypercholesterolemia stratified by SLCO1B1 c.521T>C genotype; type: in vivo, human; conditions: for AUC(0-t) / Cmax / Tmax: human, plasma, 10 mg; for Tmax: median (range)
Procedure: A screening physical examination (including sexual maturity rating via Tanner Staging) was performed prior to ingesting AVA. […] Samples were immediately centrifuged at 4 °C for 10 min at 600 g. Plasma was removed and stored at -80 °C until the analysis. […] All analytical reference compounds were purchased from Toronto Research Chemicals at their highest purity. Plasma proteins were precipitated with acetonitrile and centrifuged, and the filtrates were transferred to a new set of clean, labeled microcentrifuge tubes. An aliquot of the extracts was then transferred to a 96-well plate and analyzed by ultra-performance liquid chromatography tandem mass spectrometry (UPLC-MS/MS) with positive-ion electrospray ionization using multiple-reaction monitoring (MRM). […] Gradient elution was optimized with an acetonitrile-water-MeOH gradient: mobile phase A: water: MeOH: acetic acid (v/v/v), 90:10:0.1; mobile phase B: acetonitrile: methanol: acetic acid (v/v/v), 60:40:0.1. […] All the data acquisition and analysis were carried out by Masslynx 4.2 software. […] The individual peak plasma concentration (Cmax) and time to maximal concentration (Tmax) were obtained by direct examination of the plasma AVA concentration versus hour profile. The area under the plasma concentration versus time curve during the sampling period (AUC0-n) was calculated using the mixed log-linear method, where n refers to the final sampling time with quantifiable plasma AVA or AVA metabolite concentrations. […] Pharmacokinetic parameters were examined in JMP® version 14 (SAS, Cary, NC, USA). Pharmacokinetic parameters reflective of plasma AVA concentrations (Cmax, AUC0-n) and the SLCO1B1 genotype ([…] vs. T/C and C/C) were dependent variables and independent variables, respectively. The Kruskal-Wallis test was leveraged to compare the pharmacokinetic parameters related to genotype groups and demographics. Linear regression to examine the association between the AVA AUCn and […] genotype groups, adjusting for BMI z-score, sex and Tanner score, was performed. […] A single Tanner score was computed by averaging each participant's Tanner breast/testicular and Tanner public hair stage scores. AVA AUC0-24 was first modeled as a function of BMI z-score, sex and Tanner score to estimate the proportion of variability that could be accounted for by these participant characteristics. Then, the count of […] alleles was added to the model to estimate the additional variability accounted for. […] Therefore, the Cmax and AUC were normalized to a dose for each individual participant by dividing the exposure parameter value by the actual mg/kg dose received, then multiplying by the mean mg/kg dose for the entire cohort (e.g., participant AUC (ng·hr/mL)/participant dose (mg/kg) × cohort mean dose (mg/kg)).

[3] = female, oral, Table S3, Gender: Female, mean (± SD), read-out: AUC0-24
[4] = oral, Table S1, entire cohort, median (IQR)
[5] = oral, Table S1, entire cohort, median (IQR), read-out: AUC 0-24
[6] = oral, Table S3, Ethnicity: African-American, mean (± SD), read-out: AUC0-24
[7] = oral, Table S3, Ethnicity: White, Hispanic, mean (± SD), read-out: AUC0-24
[8] = oral, Table S3, Ethnicity: White, non-Hispanic, mean (± SD), read-out: AUC0-24
[9] = oral, Table S3, Tanner Breast/Testicular Stage 2, mean (± SD), read-out: AUC0-24
[10] = oral, Table S3, Tanner Breast/Testicular Stage 3, read-out: AUC0-24
[11] = oral, Table S3, Tanner Breast/Testicular Stage 4, mean (± SD), read-out: AUC0-24
[12] = oral, Table S3, Tanner Breast/Testicular Stage 5, mean (± SD), read-out: AUC0-24
[13] = oral, Table S3, Tanner Pubic Stage 1, read-out: AUC0-24
[14] = oral, Table S3, Tanner Pubic Stage 2, mean (± SD), read-out: AUC0-24
[15] = oral, Table S3, Tanner Pubic Stage 3, read-out: AUC0-24
[16] = oral, Table S3, Tanner Pubic Stage 4, mean (± SD), read-out: AUC0-24
[17] = oral, Table S3, Tanner Pubic Stage 5, mean (± SD), read-out: AUC0-24
[18] = po, SLCO1B1 c.521C/C (n = 2), single oral 10 mg dose, mean (±SD)
[19] = po, SLCO1B1 c.521C/C (n = 2), single oral 10 mg dose
[20] = po, SLCO1B1 c.521C/C (n = 2), single oral 10 mg dose, mean (±SD), read-out: AUC0–24
[21] = po, SLCO1B1 c.521T/C (n = 13), single oral 10 mg dose, mean (±SD)
[22] = po, SLCO1B1 c.521T/C (n = 13), single oral 10 mg dose
[23] = po, SLCO1B1 c.521T/C (n = 13), single oral 10 mg dose, mean (±SD), read-out: AUC0–24
[24] = po, SLCO1B1 c.521T/T (n = 13), single oral 10 mg dose, mean (±SD)
[25] = po, SLCO1B1 c.521T/T (n = 13), single oral 10 mg dose
[26] = po, SLCO1B1 c.521T/T (n = 13), single oral 10 mg dose, mean (±SD), read-out: AUC0–24
[27] = po, entire cohort (n = 28), median (IQR), single oral 10 mg dose
[28] = po, entire cohort (n = 28), median (IQR), single oral 10 mg dose, read-out: AUC0–24
[29] = male, oral, Table S3, Gender: Male, mean (± SD), read-out: AUC0-24

| SMILES | AUC(0-t) [2, 3] | Cmax [2, 4] | AUC(0-t) [2, 5] | AUC(0-t) [2, 6] | AUC(0-t) [2, 7] | AUC(0-t) [2, 8] | AUC(0-t) [2, 9] | AUC(0-t) [2, 10] | AUC(0-t) [2, 11] | AUC(0-t) [2, 12] | AUC(0-t) [2, 13] | AUC(0-t) [2, 14] | AUC(0-t) [2, 15] | AUC(0-t) [2, 16] | AUC(0-t) [2, 17] | Cmax [2, 18] | Tmax [2, 19] | AUC(0-t) [2, 20] | Cmax [2, 21] | Tmax [2, 22] | other results |
| --- | --- | --- | --- | --- | --- | --- | --- | --- | --- | --- | --- | --- | --- | --- | --- | --- | --- | --- | --- | --- | --- |
| CC[C@H](C)C(=O)O[C@H]1C[C@H](O)C=C2C=C[C@H](C)[C@H](CC[C@@H](O)C[C@@H](O)CC(=O)O)[C@H]21 [pravastatin] |  |  |  |  |  |  |  |  |  |  |  |  |  |  |  |  |  |  |  |  | within-c.521T>C-genotype variability in plasma statin concentration [1]: 8- to 17 fold |
| CC(C)c1c(C(=O)Nc2ccccc2)c(-c2ccccc2)c(-c2ccc(F)cc2)n1CC[C@@H](O)C[C@@H](O)CC(=O)O [Atorvastatin, reference compound] |  |  |  |  |  |  |  |  |  |  |  |  |  |  |  |  |  |  |  |  | participants with secondary peaking suggestive of entero-hepatic recirculation ([2]; 12 of 28 participants): 43%; adverse events ([2]; single oral 10 mg dose, 28 participants): No adverse events were reported |
| CC(C)c1c(C(=O)Nc2ccccc2O)c(-c2ccccc2)c(-c2ccc(F)cc2)n1CCC1CC(O)CC(=O)O1 (stereo not shown) [2-Hydroxy Atorvastatin Lactone, 2-hydroxyatorvastatin lactone] | 18 ng·h/mL | 1.1 ng/mL | 14.5 ng·h/mL | 16.7 ng·h/mL | 17.2 ng·h/mL | 16.4 ng·h/mL | 31.9 ng·h/mL | 23.4 ng·h/mL | 13.4 ng·h/mL | 12.9 ng·h/mL | 39.2 ng·h/mL | 32.7 ng·h/mL | 12.7 ng·h/mL | 8.5 ng·h/mL | 13.7 ng·h/mL | 1.9 ng/mL | 7 h | 31 ng·h/mL | 1.3 ng/mL | 5 h | effect of SLCO1B1 c.521T>C genotype on exposure ([2]; Kruskal–Wallis across genotype groups): not affected by genotype; AUC(0-t) [2, 23]: 17.4 ng·h/mL; Cmax [2, 24]: 1 ng/mL; Tmax [2, 25]: 7 h; AUC(0-t) [2, 26]: 14 ng·h/mL; Cmax [2, 27]: 1.1 ng/mL; AUC(0-t) [2, 28]: 14.5 ng·h/mL; AUC(0-t) [2, 29]: 15.7 ng·h/mL |

Continued, in another order:

| AUC(0-t) [2, 3] | Cmax [2, 4] | AUC(0-t) [2, 5] | AUC(0-t) [2, 6] | AUC(0-t) [2, 7] | AUC(0-t) [2, 8] | AUC(0-t) [2, 9] | AUC(0-t) [2, 10] | AUC(0-t) [2, 11] | AUC(0-t) [2, 12] | AUC(0-t) [2, 13] | AUC(0-t) [2, 14] | AUC(0-t) [2, 15] | AUC(0-t) [2, 16] | AUC(0-t) [2, 17] | Cmax [2, 18] | Tmax [2, 19] | AUC(0-t) [2, 20] | Cmax [2, 21] | Tmax [2, 22] | SMILES | other results |
| --- | --- | --- | --- | --- | --- | --- | --- | --- | --- | --- | --- | --- | --- | --- | --- | --- | --- | --- | --- | --- | --- |
| 12.1 ng·h/mL | 0.9 ng/mL | 8.7 ng·h/mL | 11.4 ng·h/mL | 13.2 ng·h/mL | 10 ng·h/mL | 23.3 ng·h/mL | 17.3 ng·h/mL | 7.9 ng·h/mL | 8.5 ng·h/mL | 15.4 ng·h/mL | 27.7 ng·h/mL | 7.8 ng·h/mL | 5 ng·h/mL | 8.9 ng·h/mL | 1.5 ng/mL | 6 h | 27.8 ng·h/mL | 1.1 ng/mL | 4 h | CC(C)c1c(C(=O)Nc2ccccc2)c(-c2ccccc2)c(-c2ccc(F)cc2)n1CC[C@@H]1C[C@@H](O)CC(=O)O1 [Atorvastatin Lactone, atorvastatin lactone] | mean Cmax fold higher, c.521C/C relative to c.521T/T ([2]; c.521C/C (n = 2) vs c.521T/T (n = 13)): 2.1 fold; mean Cmax fold higher, c.521T/C relative to c.521T/T ([2]; c.521T/C (n = 13) vs c.521T/T (n = 13)): 1.6 fold; mean AUC0–24 fold higher, c.521T/C relative to c.521T/T ([2]; c.521T/C vs reference genotype): 1.8 fold; AUC(0-t) [2, 23]: 13 ng·h/mL; Cmax [2, 24]: 0.7 ng/mL; Tmax [2, 25]: 2.5 h; AUC(0-t) [2, 26]: 7.2 ng·h/mL; Cmax [2, 27]: 0.9 ng/mL; AUC(0-t) [2, 28]: 8.7 ng·h/mL; AUC(0-t) [2, 29]: 10.7 ng·h/mL |
| 7.3 ng·h/mL | 0.7 ng/mL | 6.4 ng·h/mL | 6.1 ng·h/mL | 7.6 ng·h/mL | 6.9 ng·h/mL | 6 ng·h/mL | 6 ng·h/mL | 4.7 ng·h/mL | 8.1 ng·h/mL | 5.1 ng·h/mL | 6.7 ng·h/mL | 4.1 ng·h/mL | 3.6 ng·h/mL | 8 ng·h/mL | 1.3 ng/mL | 5 h | 10.8 ng·h/mL | 0.8 ng/mL | 3 h | CC(C)c1c(C(=O)Nc2ccccc2O)c(-c2ccccc2)c(-c2ccc(F)cc2)n1CC[C@@H](O)C[C@@H](O)CC(=O)O [2-Hydroxy Atorvastatin, 2-hydroxyatorvastatin] | AUC(0-t) [2, 23]: 7.5 ng·h/mL; Cmax [2, 24]: 0.7 ng/mL; Tmax [2, 25]: 2 h; AUC(0-t) [2, 26]: 6.2 ng·h/mL; Cmax [2, 27]: 0.7 ng/mL; AUC(0-t) [2, 28]: 6.4 ng·h/mL; AUC(0-t) [2, 29]: 7 ng·h/mL |
